Measurements as given in patent US7074824B2, “Pharmaceutical compositions containing beta-lapachone, or derivatives or analogs thereof, and methods of using same” (Arqule, Inc., priority 2001, dated 2006).

Legend:
[1] = test system: Human ovarian cancer cells (36M2); assay: Human ovarian cancer xenograft model, β-lapachone in Lipiodol and Taxol®; format: in vivo, athymic female nude mice; conditions: i.p., 10 cycles
Procedure: Human ovarian cancer cells (36M2, originally isolated from malignant ascites) were inoculated by i.p. injection into athymic female nude mice 24 h after irradiation. In this model, metastatic foci form approximately 1 week after inoculation, and tumor nodules of the peritoneum and malignant ascites develop in 4–5 weeks. Ten days after tumor inoculation (10×10^6 cells), treatment regimens were initiated. The control group was treated with vehicle alone. In each typical treatment cycle, the β-lapachone alone group was treated with 25–50 mg/kg i.p. of β-lapachone in Lipiodol solution and the Taxol® alone group was treated at 1 mg/kg i.p. (Taxol® formulation diluted in Lipiodol), both followed 24 h later by i.p. injection of vehicle. In the combination group, nude mice were treated with β-lapachone at 25–50 mg/kg, followed 24 h later by Taxol® at 1 mg/kg. All groups were treated for 10 cycles, with a 1-day break between each cycle. […] Host toxicity was evaluated by general appearance and body weight.

[2] = biological target: T1, human DNA Topoisomerases I (Homo sapiens, UniProt P11387); conditions: cited from earlier work
T1 sequence (P11387 1-765): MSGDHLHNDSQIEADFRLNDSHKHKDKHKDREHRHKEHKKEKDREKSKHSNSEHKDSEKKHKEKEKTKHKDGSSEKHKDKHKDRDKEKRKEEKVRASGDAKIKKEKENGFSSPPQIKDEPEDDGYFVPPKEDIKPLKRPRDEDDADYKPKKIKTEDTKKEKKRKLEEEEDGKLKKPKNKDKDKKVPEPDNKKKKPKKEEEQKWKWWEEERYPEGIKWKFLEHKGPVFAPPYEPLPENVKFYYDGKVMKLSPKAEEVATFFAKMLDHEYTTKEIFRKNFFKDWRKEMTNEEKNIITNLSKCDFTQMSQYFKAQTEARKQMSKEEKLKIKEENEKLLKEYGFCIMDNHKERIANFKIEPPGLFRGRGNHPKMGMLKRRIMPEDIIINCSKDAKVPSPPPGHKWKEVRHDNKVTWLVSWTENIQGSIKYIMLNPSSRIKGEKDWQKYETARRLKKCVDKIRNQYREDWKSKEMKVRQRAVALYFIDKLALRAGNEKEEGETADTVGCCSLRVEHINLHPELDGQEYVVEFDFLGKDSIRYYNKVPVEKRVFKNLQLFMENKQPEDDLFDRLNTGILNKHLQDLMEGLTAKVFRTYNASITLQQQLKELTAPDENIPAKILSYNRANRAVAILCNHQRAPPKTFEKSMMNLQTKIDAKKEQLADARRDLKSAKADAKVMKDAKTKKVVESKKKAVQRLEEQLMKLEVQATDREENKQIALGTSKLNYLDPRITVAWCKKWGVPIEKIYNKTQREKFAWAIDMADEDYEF

[3] = biological target: human DNA Topoisomerases II (Homo sapiens, UniProt P11388); conditions: cited from earlier work
[4] = test system: six human cancer cells lines; assay: MTS growth inhibition assay, summary over all lines; format: cell-based; conditions: all six tumor cell lines; tested up to 20 μM
Procedure: A2780 and A2780/CP (ovarian); MCF-7 (breast); HT-29 (colon); BxPC-3 (pancreas); and A549 (lung). The human tumor cell lines (purchased from ATCC, Rockville, Md.) were cultured at 37° C. (5% CO2) in RPMI medium (RPMI; Nova Tech, Grand Island, N.Y.) containing 10% fetal bovine serum (FBS, Nova Tech). Aliquots of cells were seeded into each well of 96-well microtiter plates at a final concentration of 10^4 cells/well and incubated for 24 h prior to exposure to test compounds. […] The MTS assay is a colorimetric assay based upon the ability of viable cells to convert MTS, a novel tetrazolium compound and electron-coupling reagent, to a colored formazan product that is soluble in cell culture medium. The cell concentration is then determined by measuring the absorbance of the formazan product at 490 nm. Growth inhibition, expressed as IC50, is calculated relative to vehicle-treated control cells.

human carcinoma cells = assay: Colony formation assay of β-lapachone combined with Taxol®; format: cell-based; conditions: 4 h exposure, colonies scored after 10–20 days; ovarian, breast, prostate, melanoma, lung and pancreatic cell lines, FIG. 4
Procedure: In these studies, exponentially growing cells were seeded at 1,000 cells per well in six-well plates and allowed to attach for 48 h. β-lapachone and/or Taxol®, solubilized in DMSO, were added to the wells. Control wells were treated with equivalent volumes of DMSO. After 4 h cells were rinsed and fresh medium was added. Cultures were observed daily for 10–20 days and then were fixed and stained. Colonies of greater than 30 cells were scored as survivors.

Chain of human DNA Topoisomerases II (P11388 whole entry): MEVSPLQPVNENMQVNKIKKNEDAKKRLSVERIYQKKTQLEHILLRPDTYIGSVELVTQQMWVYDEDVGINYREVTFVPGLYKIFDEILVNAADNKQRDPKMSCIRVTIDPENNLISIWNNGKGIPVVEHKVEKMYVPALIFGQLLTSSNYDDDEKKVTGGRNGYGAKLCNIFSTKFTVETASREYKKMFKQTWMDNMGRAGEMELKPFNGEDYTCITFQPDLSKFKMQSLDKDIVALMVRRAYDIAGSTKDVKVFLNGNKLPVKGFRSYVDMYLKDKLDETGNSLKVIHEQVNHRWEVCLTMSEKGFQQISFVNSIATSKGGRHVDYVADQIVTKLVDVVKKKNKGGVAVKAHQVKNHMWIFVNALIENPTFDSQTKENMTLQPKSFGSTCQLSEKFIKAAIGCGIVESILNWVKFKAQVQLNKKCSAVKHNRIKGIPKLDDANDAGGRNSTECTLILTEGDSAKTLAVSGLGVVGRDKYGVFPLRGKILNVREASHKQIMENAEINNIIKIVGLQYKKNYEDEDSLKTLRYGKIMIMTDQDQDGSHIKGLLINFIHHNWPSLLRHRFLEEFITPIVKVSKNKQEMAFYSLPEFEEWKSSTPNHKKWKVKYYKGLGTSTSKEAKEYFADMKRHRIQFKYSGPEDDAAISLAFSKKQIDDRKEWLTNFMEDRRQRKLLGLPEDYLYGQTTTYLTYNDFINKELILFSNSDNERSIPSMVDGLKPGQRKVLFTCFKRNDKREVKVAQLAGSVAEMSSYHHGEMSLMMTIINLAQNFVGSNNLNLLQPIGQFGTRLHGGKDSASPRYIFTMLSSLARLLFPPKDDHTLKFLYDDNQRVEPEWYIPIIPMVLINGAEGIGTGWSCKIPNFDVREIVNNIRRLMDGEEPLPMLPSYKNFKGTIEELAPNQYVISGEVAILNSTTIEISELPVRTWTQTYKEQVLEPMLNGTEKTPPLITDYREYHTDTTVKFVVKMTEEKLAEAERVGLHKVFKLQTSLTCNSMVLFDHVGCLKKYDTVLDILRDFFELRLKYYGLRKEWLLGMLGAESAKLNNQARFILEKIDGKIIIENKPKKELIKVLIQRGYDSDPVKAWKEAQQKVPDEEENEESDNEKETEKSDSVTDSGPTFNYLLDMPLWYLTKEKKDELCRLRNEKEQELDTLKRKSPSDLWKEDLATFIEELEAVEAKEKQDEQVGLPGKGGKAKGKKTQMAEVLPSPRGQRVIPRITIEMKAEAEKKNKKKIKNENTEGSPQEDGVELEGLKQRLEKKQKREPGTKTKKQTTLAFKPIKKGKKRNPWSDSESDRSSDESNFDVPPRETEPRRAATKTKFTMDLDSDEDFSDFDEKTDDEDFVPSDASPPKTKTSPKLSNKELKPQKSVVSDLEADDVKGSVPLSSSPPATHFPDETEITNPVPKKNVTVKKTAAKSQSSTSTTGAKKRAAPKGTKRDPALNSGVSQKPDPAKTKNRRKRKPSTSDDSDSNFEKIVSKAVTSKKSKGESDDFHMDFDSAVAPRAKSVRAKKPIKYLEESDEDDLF

## CC1(C)CCC2=C(O1)c1ccccc1C(=O)C2=O [β-lapachone]
[1]; assessed day 50, β-lapachone 25–50 mg/kg in Lipiodol, Taxol® 1 mg/kg
  decrease in tumor number versus control: ~75%
[1]; laparotomy at day 50
  size of the tumor nodules and amount of ascites: considerable reduction in the size of the tumor nodules and the amount of ascites
[2]
  in vitro inhibition: potent in vitro inhibition
[3]
  in vitro inhibition: potent in vitro inhibition
[4]
  growth inhibitory activity, verbal summary: dose-dependent inhibitory effect
Human carcinoma cells
  inhibition of cancer cell survival (colony formation): much less effective
